{
  "source": "patent US8697683B2",
  "about": "“Azetidinyl diamides as monoacylglycerol lipase inhibitors” (Janssen Pharmaceutica, NV, priority 2009, dated 2014)",
  "data": [
    {"molecular_target": "T1, MGL (Rattus norvegicus, UniProt Q8R431)", "T1 construct": "one g rat brain was homogenized", "T1 sequence (Q8R431 1-303)": "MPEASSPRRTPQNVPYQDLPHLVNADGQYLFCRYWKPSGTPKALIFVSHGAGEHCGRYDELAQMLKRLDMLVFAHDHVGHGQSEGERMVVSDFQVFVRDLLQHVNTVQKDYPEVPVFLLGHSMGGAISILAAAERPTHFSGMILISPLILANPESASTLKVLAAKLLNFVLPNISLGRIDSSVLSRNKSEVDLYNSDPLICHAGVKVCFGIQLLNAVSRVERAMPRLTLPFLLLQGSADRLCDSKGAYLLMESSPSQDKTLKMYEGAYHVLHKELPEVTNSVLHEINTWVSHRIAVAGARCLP", "assay": "2-AG Accumulation Assay (rat brain homogenate)", "assay_type": "biochemical", "conditions": "compound 1 μM, percent of vehicle 2-AG accumulation", "units": {"Rat Brain 2AG % VehCntrl (%) @1 μM": "%"}, "values": [
      {"smiles": "O=C(c1ccc(CSc2cccc(Cl)c2)cc1)N1CC(N2CCN(C(=O)c3nccs3)CC2)C1", "note": "[Cpd 454]", "Rat Brain 2AG % VehCntrl (%) @1 μM": 1066},
      {"smiles": "O=C(c1ccc(CNc2cccc(Cl)c2)cc1)N1CC(N2CCN(C(=O)c3nccs3)CC2)C1", "note": "[Cpd 455]", "Rat Brain 2AG % VehCntrl (%) @1 μM": 1013},
      {"smiles": "COc1c(C(=O)N2CC(N3CCN(C(=O)c4nccs4)CC3)C2)sc2cc(C(F)(F)F)ccc12", "note": "[Cpd 649, 1-(1-{[3-Methoxy-6-(trifluoromethyl)-1-benzothiophen-2-yl]carbonyl}azetidin-3-yl)-4-(1,3-thiazol-2-ylcarbonyl)piperazine]", "Rat Brain 2AG % VehCntrl (%) @1 μM": 1017},
      {"smiles": "O=C(c1ccc2nc(N3CCC(F)(F)CC3)sc2c1)N1CC(N2CCN(C(=O)c3nccs3)CC2)C1", "note": "[Cpd 671]", "Rat Brain 2AG % VehCntrl (%) @1 μM": 1035},
      {"smiles": "O=C(c1ccc2c(c1)CCN(Cc1cccc(C(F)(F)F)c1)C2)N1CC(N2CCN(C(=O)c3nccs3)CC2)C1", "note": "[Cpd 879]", "Rat Brain 2AG % VehCntrl (%) @1 μM": 1027},
      {"smiles": "O=C(c1nccs1)N1CCN(C2CN(C(=O)c3sc4cc(C(F)(F)F)ccc4c3F)C2)CC1", "note": "[Cpd 895, 1-(1-{[3-Fluoro-6-(trifluoromethyl)-1-benzothiophen-2-yl]carbonyl}azetidin-3-yl)-4-(1,3-thiazol-2-ylcarbonyl)piperazine]", "Rat Brain 2AG % VehCntrl (%) @1 μM": 1207},
      {"smiles": "Cc1c(C(=O)N2CC(N3CCN(C(=O)c4nccs4)CC3)C2)sc2ccc(C(F)(F)F)cc12", "note": "[Cpd 897]", "Rat Brain 2AG % VehCntrl (%) @1 μM": 1234},
      {"smiles": "Cc1c(C(=O)N2CC(N3CCN(C(=O)c4nccs4)CC3)C2)sc2cc(C(F)(F)F)ccc12", "note": "[Cpd 899, 1-(1-{[3-Methyl-6-(trifluoromethyl)-1-benzothiophen-2-yl]carbonyl}azetidin-3-yl)-4-(1,3-thiazol-2-ylcarbonyl)piperazine]", "Rat Brain 2AG % VehCntrl (%) @1 μM": 1092},
      {"smiles": "O=C(c1ccc2c(c1)CCN(S(=O)(=O)c1ccc(C(F)(F)F)cc1)C2)N1CC(N2CCN(C(=O)c3nccs3)CC2)C1", "note": "[Cpd 928]", "Rat Brain 2AG % VehCntrl (%) @1 μM": 1207},
      {"smiles": "O=C(c1ccc(OCc2cccc(Cl)c2)cc1)N1CC(N2CCN(C(=O)c3nccs3)CC2)C1", "note": "[Cpd 957]", "Rat Brain 2AG % VehCntrl (%) @1 μM": 1442},
      {"smiles": "O=C(c1ccc(OCc2ccc(Cl)s2)cc1)N1CC(N2CCN(C(=O)c3nccs3)CC2)C1", "note": "[Cpd 962]", "Rat Brain 2AG % VehCntrl (%) @1 μM": 1213},
      {"smiles": "O=C(c1ccc(OCc2ccc3ccccc3n2)cc1)N1CC(N2CCN(C(=O)c3nccs3)CC2)C1", "note": "[Cpd 967]", "Rat Brain 2AG % VehCntrl (%) @1 μM": 1373},
      {"smiles": "O=C(c1ccc(Cc2ccc(C(F)(F)F)cc2)cc1)N1CC(N2CCN(C(=O)c3nccs3)CC2)C1", "note": "[Cpd 985]", "Rat Brain 2AG % VehCntrl (%) @1 μM": 1116},
      {"smiles": "O=C(c1ccc2c(c1)CCN2Cc1ccccc1)N1CC(N2CCN(C(=O)c3nccs3)CC2)C1", "note": "[Cpd 994, 1-Benzyl-5-({3-[4-(1,3-thiazol-2-ylcarbonyl)piperazin-1-yl]azetidin-1-yl}carbonyl)-2,3-dihydro-1H-indole]", "Rat Brain 2AG % VehCntrl (%) @1 μM": 1014}
    ]},
    {"molecular_target": "T1, MGL", "assay": "2-AG Accumulation Assay (rat brain homogenate)", "assay_type": "biochemical", "conditions": "compound 10 μM, percent of vehicle 2-AG accumulation", "units": {"Rat Brain 2AG % VehCntrl (%) @10 μM": "%"}, "values": [
      {"smiles": "O=C(c1ccc(SCc2cccc(Cl)c2Cl)cc1)N1CC(N2CCN(C(=O)c3nccs3)CC2)C1", "note": "[Cpd 413, 1-[1-({4-[(2,3-Dichlorobenzyl)sulfanyl]phenyl}carbonyl)azetidin-3-yl]-4-(1,3-thiazol-2-ylcarbonyl)piperazine]", "Rat Brain 2AG % VehCntrl (%) @10 μM": 1693},
      {"smiles": "O=C(c1ccc(SCc2ccc(Cl)c(Cl)c2)cc1)N1CC(N2CCN(C(=O)c3nccs3)CC2)C1", "note": "[Cpd 414, 1-[1-({4-[(3,4-Dichlorobenzyl)sulfanyl]phenyl}carbonyl)azetidin-3-yl]-4-(1,3-thiazol-2-ylcarbonyl)piperazine]", "Rat Brain 2AG % VehCntrl (%) @10 μM": 1608},
      {"smiles": "O=C(c1ccc(SCc2ccc(Cl)cc2)cc1)N1CC(N2CCN(C(=O)c3nccs3)CC2)C1", "note": "[Cpd 415]", "Rat Brain 2AG % VehCntrl (%) @10 μM": 1629},
      {"smiles": "O=C(c1ccccc1)N1CCN(C2CN(C(=O)c3ccc(NCc4ccc(F)c(C(F)(F)F)c4)cc3)C2)CC1", "note": "[Cpd 494, N-[4-Fluoro-3-(trifluoromethyl)benzyl]-4-({3-[4-(phenylcarbonyl)piperazin-1-yl]azetidin-1-yl}carbonyl)aniline]", "Rat Brain 2AG % VehCntrl (%) @10 μM": 1121},
      {"smiles": "O=C(c1ccc(Oc2cccc(Cl)c2)c(F)c1)N1CC(N2CCN(C(=O)c3nccs3)CC2)C1", "note": "[Cpd 875]", "Rat Brain 2AG % VehCntrl (%) @10 μM": 1285}
    ]}
  ]
}
